Reference: ChEMBL document CHEMBL1201862, “PubChem BioAssay data set” (2004)
The source made the active and inactive calls.

What was measured:
[1] = target: T1, Runt-related transcription factor 1/Core-binding factor subunit beta (Homo sapiens, UniProt Q01196+Q13951); assay: Runt domain/CBFb-SMMHC interaction disruptors – biochemical, TR-FRET (AID 1438); assay type: protein assay
[2] = target: T1, Runt-related transcription factor 1/Core-binding factor subunit beta; assay: disruptors of Runt domain/CBFb-SMMHC interaction – biochemical, FRET, Cerulean-Runt, Venus-CBFb-SMMHC, uHTS, […] (AID 1434); assay type: protein assay
[3] = Luminescence Cell-Based Dose Confirmation HTS to Identify Inhibitors of Platelet Dense Granule Release. [Related pubchem assays: 1663 (Primary HTS), 1678 (Summary of Project)]; assay type: functional
[4] = target: Intestinal-type alkaline phosphatase (Mus musculus, UniProt P24822); assay: PubChem AID 488785; assay type: functional
[5] = target: Intestinal-type alkaline phosphatase (Homo sapiens, UniProt P09923); assay: activation of human intestinal alkaline phosphatase – biochemical, dose response (AID 488873); assay type: functional
[6] = target: Luciferin 4-monooxygenase (Photinus pyralis, UniProt P08659); assay: inhibition of purified Photinus pyralis luciferase – biochemical, luminescence, dose response (AID 1891)
[7] = target: T2, Heat shock factor protein 1 (Mus musculus, UniProt P38532); assay: decrease of HSF1-responsive luciferase luminescence – cell-based, NIH3T3, dose retest, confirmation (AID 2382); assay type: functional;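 also: NIH3T3 fibroblasts with HSF1-driven luciferase reporter stressed by proteasome inhibitor MG132; luminescence from HSF1-driven luciferase expression after 8 hours of MG132 stress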
T2 sequence (P38532 whole entry): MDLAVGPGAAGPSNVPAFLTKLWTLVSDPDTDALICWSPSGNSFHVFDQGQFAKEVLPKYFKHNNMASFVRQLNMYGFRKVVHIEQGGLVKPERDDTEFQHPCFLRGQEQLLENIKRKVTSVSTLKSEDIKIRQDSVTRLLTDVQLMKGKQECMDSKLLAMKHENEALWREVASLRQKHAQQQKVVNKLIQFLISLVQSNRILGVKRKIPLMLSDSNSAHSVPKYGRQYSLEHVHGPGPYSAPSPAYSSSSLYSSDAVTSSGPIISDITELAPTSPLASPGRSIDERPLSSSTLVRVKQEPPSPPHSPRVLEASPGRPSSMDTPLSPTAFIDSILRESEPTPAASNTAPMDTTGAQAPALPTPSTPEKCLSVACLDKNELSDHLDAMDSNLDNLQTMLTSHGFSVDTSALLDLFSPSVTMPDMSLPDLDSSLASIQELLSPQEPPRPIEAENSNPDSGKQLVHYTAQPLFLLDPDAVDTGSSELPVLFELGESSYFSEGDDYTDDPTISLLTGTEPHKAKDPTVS

[8] = target: T3, Alkaline phosphatase, tissue-nonspecific isozyme (Homo sapiens, UniProt P05186); assay: TNAP enzyme inhibition by screening hits, dose response, selectivity assay for mouse IAP inhibitor project, biochemical, human TNAP, uHTS hits (AID 488906); assay type: functional
T3 sequence (P05186 whole entry): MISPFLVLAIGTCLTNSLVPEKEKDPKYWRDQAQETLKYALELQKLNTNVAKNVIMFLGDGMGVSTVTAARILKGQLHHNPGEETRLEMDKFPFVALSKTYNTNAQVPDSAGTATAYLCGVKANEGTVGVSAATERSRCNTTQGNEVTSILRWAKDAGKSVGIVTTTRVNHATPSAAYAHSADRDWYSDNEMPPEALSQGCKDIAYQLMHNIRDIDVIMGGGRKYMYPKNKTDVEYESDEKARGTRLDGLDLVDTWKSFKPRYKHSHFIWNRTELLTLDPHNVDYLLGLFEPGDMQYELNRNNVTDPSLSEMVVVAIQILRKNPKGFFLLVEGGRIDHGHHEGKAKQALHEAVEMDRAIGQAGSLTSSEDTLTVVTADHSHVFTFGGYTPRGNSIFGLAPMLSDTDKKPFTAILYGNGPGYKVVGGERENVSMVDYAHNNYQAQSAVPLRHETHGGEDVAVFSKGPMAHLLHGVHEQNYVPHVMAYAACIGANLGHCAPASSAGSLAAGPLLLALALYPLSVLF

Beta-galactosidase = Beta-galactosidase (Escherichia coli, UniProt Q8VNN2); assay: detection-enzyme interference by beta-gal modulators – biochemical, E. coli enzyme, set 3, artefact control for CCR6 antagonist project, dose response (AID 504712); assay type: functional
[9] = Luminescent dose response cell-based high throughput screening assay for inhibitors of the Janus kinase 2 mutant JAK2V617F. [Related pubchem assays: 1446 (Primary screen.), 1521 (Confirmation assay.), 1486 (Counter screen.)]; assay type: functional
[10] = Trypanosoma cruzi growth suppression in host cells – NIH3T3 host cells, beta-gal luminescence, confirmation (AID 2044); assay type: functional, cell-based;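 also: intracellular parasites grown in NIH/3T3 mouse fibroblasts as host cells; luminescent beta-galactosidase reporter signal from transgenic T. cruzi replicating inside host cells; inhibitors lower the luminescence signal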
[11] = target: T4, Voltage-gated N-type calcium channel alpha-1B subunit/Amyloid beta A4 precursor protein-binding family A member 1 (Homo sapiens, UniProt Q00975+Q02410); assay type: protein assay
[12] = NIH3T3 cell viability loss – ATP luminescence, mouse fibroblasts, counter-screen, dose response (AID 2010); assay type: functional, cell-based;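 also: cells exposed to compound for about 90 hours before reading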
[13] = target: T4, Voltage-gated N-type calcium channel alpha-1B subunit/Amyloid beta A4 precursor protein-binding family A member 1; assay type: protein assay; remark: listed apart in the source
[14] = non-specific 3'UTR reporter inhibition in Clone20-Shn3RL – cell-based, Renilla luciferase, cherry-picked, counter-screen for Shn3 inhibitor project, dose response (AID 624133); assay type: functional
Melanocortin receptor 4 = Melanocortin receptor 4 (Homo sapiens, UniProt P32245); assay: inhibitors of MC4R cAMP signaling – cell-based, TR-FRET, biased antagonists, dose response (AID 602298); assay type: functional;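 also: antagonist potency against agonist-stimulated cAMP production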
[15] = test system: Streptococcus sp. 'group A'; assay: Streptococcus pyogenes SK(-)GAS viability under kanamycin – luminescence, BacTiterGlo, confirmation, counter-screen for streptokinase expression inhibitor project, dose response (AID 1900); assay type: functional, organism-based
[16] = target: Glucose-6-phosphate 1-dehydrogenase (Homo sapiens, UniProt P11413); assay: inhibition of Homo sapiens G6PD, dose series – biochemical, fluorescence, selectivity assay for P. falciparum G6PD inhibitor project, dose response (AID 504792); assay type: functional
CHO = CHO cell viability loss, potency – luminescence, cytotoxicity control for TLR9-MyD88 binding inhibitor project, dose response (AID 588339); assay type: functional, cell-based, hamster; details: Cricetulus griseus;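 also: CHO cells stably coexpressing TLR9 and MyD88 fusions from primary screen; compound exposure lasted 48 hours before viability readout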
[17] = target: Heat shock protein HSP 90-alpha (Homo sapiens, UniProt P07900); assay type: functional, organism-based
[18] = loss of viability in HepG2 cells – cell-based, CellTiter-Glo, cherry-picked, cytotoxicity control for Shn3 inhibitor project, dose response (AID 624134); assay type: functional
Streptococcus = assay: GAS UMAA2166 growth inhibition – luminescence, BacTiterGlo, counter-screen for streptokinase expression inhibitor project, dose response (AID 1915); assay type: functional, organism-based;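 also: potency for reduction of bacterial viability or growth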
[19] = cAMP pathway inhibition in counterscreen cell line – TR-FRET cAMP detection, counter-screen for MC4R biased antagonist project, dose response (AID 602305); assay type: functional, cell-based;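 also: U2OS cells stimulated with forskolin near its EC80 as the cAMP inducer; potency is for inhibition of forskolin-stimulated cAMP signaling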
Streptokinase A = target: T5, Streptokinase A (Streptococcus pyogenes serotype M1, UniProt P10520); assay: viability-normalized secreted streptokinase activity reduction – plasminogen activation absorbance, OD405, dose response (AID 1914); assay type: functional, Streptococcus pyogenes M1 GAS;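 also: secreted streptokinase activity via plasminogen activation per viability signal from cell pellet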
T5 sequence (P10520 whole entry): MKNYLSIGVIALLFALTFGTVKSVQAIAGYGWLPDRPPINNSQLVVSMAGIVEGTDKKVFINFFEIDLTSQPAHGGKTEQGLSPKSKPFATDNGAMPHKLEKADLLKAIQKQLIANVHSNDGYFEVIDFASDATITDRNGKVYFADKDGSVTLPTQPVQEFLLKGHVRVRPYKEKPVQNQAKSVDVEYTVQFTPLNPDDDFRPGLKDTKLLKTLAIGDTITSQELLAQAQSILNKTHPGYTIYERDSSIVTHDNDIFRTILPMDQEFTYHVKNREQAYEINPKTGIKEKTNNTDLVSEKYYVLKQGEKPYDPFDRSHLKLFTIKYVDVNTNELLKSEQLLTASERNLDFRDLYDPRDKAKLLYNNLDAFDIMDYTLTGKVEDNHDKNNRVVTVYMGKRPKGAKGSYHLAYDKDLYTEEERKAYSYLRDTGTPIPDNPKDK

[20] = reduction of Shn3 3'UTR-driven luciferase in osteoblasts – cell-based, Clone20 osteoblasts, firefly luciferase, cherry-picked, dose response (AID 624132); assay type: functional;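 also: firefly luciferase luminescence from reporter carrying the Shn3 3'UTR in osteoblasts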
Caspase-7 = Caspase-7 (Homo sapiens, UniProt P55210); assay: activation of caspase-7 zymogen – biochemical, absorbance, counter-screen for procaspase-3 activator project, dose response (AID 489013)
[21] = target: T6, Zinc finger protein mex-5 (Caenorhabditis elegans, UniProt Q9XUB2); assay: potency of MEX-5 RNA-binding blockers – biochemical, C. elegans, fluorescence polarization, dose response (AID 1960)
T6 sequence (Q9XUB2 whole entry): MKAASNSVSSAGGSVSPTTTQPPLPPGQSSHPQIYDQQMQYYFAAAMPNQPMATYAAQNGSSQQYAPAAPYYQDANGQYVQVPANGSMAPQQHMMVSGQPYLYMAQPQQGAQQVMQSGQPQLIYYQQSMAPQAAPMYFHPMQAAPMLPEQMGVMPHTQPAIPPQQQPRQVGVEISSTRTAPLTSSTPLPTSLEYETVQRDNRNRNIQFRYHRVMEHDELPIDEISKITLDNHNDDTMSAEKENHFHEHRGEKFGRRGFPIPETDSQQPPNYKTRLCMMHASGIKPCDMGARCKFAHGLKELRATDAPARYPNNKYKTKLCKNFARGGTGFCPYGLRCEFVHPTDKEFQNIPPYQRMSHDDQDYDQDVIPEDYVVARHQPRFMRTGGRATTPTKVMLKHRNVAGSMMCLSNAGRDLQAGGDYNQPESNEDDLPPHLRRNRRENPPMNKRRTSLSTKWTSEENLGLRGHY

[22] = target: T7, RNA-binding protein pos-1 (Caenorhabditis elegans, UniProt G5EF15); assay: disruptors of C. elegans POS-1 RNA interaction – biochemical, fluorescence polarization, dose response (AID 1964);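 also: purified POS-1 fused to maltose binding protein made in E. coli; potency of compounds blocking POS-1 binding to fluorescent RNA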
T7 sequence (G5EF15 whole entry): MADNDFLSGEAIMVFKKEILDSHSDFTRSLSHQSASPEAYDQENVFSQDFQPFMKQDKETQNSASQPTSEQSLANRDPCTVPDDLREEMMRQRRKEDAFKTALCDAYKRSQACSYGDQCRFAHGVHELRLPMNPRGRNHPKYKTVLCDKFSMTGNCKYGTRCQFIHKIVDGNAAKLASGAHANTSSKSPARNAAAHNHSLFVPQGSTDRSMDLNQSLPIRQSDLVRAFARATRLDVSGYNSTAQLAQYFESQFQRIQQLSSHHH

[23] = target: Induced myeloid leukemia cell differentiation protein Mcl-1 (Homo sapiens, UniProt Q07820); assay: blockers of MCL1 binding to BIM peptide – biochemical, fluorescence polarization, BIM-BH3 peptide, 1536-well, dose response (AID 2217)
Caspase-3 = target: T8, Caspase-3 (Homo sapiens, UniProt P42574); assay: activation of caspase-3 zymogen – biochemical, absorbance, dose response (AID 489014)
T8 sequence (P42574 whole entry): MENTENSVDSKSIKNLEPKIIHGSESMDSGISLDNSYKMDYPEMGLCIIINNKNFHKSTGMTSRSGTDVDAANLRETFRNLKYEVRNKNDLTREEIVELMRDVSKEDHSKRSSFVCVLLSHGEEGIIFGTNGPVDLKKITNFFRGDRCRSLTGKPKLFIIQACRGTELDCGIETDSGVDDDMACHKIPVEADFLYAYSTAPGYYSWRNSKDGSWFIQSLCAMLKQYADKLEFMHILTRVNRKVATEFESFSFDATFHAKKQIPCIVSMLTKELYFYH

[24] = Luminescence Cell-Based Dose Retest to Confirm Inhibitors of Cancer Stem Cells. [Related pubchem assays (depositor defined):AID2717, AID2721]; assay type: functional; details: Homo sapiens
Bcl-2-like protein 1 = Bcl-2-like protein 1 (Homo sapiens, UniProt Q07817); assay: blockers of BCLXL peptide binding – biochemical, fluorescence polarization, 1536-well, selectivity assay for MCL1 inhibitor project, dose response (AID 2218)

T4 sequence (Q00975 whole entry): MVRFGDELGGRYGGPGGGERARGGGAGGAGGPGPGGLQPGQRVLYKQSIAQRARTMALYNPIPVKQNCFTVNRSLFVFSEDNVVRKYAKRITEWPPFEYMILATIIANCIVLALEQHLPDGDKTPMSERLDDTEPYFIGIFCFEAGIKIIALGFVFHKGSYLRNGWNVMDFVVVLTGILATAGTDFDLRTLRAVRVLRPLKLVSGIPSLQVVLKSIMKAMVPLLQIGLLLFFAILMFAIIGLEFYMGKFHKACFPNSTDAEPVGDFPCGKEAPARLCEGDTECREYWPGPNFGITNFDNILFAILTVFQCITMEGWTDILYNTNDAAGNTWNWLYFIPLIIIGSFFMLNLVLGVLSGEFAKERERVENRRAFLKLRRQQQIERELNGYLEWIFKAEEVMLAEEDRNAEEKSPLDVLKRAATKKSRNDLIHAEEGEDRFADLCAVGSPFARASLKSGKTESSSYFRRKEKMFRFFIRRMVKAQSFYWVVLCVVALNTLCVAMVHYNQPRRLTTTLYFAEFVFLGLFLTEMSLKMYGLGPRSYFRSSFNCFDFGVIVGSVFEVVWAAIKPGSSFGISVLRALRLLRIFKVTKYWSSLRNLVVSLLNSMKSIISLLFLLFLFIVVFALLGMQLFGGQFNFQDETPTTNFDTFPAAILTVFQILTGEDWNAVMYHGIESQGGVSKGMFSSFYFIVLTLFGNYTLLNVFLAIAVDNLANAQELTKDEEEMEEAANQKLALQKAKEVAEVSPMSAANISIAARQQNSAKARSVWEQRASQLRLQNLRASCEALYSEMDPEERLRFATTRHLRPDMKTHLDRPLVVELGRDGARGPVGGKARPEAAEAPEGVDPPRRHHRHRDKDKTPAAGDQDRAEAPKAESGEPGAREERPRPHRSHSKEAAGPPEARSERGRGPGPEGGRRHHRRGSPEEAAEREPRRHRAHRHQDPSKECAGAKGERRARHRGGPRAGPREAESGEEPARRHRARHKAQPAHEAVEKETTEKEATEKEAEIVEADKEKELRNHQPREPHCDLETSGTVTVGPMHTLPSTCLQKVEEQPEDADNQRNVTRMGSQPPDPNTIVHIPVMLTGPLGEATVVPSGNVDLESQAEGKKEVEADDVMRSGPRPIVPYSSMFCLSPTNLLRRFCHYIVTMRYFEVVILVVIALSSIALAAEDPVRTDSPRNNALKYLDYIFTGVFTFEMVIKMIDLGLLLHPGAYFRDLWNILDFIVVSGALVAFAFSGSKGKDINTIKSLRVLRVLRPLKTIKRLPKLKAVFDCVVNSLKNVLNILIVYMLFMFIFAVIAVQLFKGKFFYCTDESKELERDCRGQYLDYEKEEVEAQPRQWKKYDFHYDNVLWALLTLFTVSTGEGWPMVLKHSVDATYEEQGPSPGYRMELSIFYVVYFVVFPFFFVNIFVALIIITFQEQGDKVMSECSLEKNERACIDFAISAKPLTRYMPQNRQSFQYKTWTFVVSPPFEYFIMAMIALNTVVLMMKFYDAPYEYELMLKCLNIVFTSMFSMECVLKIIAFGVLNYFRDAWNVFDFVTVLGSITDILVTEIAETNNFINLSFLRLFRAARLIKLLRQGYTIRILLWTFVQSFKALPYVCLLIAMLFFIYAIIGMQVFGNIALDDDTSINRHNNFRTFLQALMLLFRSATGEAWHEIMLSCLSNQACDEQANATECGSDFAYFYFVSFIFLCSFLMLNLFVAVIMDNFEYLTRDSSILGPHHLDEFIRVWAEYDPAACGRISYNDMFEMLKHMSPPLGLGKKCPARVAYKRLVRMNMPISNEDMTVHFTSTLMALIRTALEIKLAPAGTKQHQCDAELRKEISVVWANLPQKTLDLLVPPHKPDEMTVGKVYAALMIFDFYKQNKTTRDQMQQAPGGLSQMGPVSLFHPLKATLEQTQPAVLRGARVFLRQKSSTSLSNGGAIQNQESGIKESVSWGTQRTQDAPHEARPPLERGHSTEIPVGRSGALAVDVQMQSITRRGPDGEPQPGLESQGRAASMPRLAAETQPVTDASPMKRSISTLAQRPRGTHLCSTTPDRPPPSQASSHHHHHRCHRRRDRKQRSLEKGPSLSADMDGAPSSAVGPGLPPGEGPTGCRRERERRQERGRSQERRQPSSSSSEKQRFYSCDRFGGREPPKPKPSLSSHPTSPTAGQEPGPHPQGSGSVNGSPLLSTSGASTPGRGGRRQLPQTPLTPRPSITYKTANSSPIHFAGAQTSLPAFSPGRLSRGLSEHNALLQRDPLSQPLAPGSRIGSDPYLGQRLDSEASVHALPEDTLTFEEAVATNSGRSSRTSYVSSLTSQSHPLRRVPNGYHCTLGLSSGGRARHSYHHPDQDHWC
T4 sequence (Q02410 whole entry): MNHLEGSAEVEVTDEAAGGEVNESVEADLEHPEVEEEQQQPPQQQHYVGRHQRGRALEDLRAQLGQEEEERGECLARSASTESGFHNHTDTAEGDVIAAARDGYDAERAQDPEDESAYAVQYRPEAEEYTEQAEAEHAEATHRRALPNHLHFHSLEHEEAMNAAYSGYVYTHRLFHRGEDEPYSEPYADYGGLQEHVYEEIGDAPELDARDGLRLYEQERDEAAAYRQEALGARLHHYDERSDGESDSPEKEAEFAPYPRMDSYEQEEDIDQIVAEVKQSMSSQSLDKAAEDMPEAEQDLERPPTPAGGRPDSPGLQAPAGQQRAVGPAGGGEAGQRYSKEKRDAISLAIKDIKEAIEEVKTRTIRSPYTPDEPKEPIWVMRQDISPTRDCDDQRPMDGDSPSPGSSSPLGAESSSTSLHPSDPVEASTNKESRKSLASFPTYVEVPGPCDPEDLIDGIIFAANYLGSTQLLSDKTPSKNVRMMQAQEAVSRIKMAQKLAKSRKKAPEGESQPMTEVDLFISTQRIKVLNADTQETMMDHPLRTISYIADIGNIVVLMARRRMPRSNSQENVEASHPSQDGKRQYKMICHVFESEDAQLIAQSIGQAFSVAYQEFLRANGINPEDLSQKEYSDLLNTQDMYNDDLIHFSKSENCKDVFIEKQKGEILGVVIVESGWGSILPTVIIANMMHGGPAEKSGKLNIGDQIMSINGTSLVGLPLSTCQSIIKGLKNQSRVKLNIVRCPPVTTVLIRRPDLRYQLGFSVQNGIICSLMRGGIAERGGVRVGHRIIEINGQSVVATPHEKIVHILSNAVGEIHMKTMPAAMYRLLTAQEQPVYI
T1 sequence (Q01196 whole entry, the tested form may be a part): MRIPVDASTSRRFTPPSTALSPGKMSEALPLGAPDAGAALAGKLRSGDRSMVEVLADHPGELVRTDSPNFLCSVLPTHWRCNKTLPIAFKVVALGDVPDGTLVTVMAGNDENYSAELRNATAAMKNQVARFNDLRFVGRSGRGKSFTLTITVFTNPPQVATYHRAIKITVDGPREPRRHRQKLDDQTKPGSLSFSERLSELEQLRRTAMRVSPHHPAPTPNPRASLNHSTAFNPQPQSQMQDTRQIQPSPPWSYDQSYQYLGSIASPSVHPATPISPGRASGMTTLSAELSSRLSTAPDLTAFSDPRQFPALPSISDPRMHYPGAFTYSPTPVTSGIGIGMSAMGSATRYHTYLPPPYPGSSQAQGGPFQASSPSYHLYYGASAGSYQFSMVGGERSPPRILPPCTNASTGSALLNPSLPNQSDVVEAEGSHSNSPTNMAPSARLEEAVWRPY
T1 sequence (Q13951 whole entry, the tested form may be a part): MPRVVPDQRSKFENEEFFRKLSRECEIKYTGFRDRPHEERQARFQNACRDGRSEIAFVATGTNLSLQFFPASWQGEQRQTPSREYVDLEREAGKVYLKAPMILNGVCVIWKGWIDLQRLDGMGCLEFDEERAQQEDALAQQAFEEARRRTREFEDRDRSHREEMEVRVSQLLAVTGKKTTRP
Chain of Intestinal-type alkaline phosphatase (Mus musculus, UniProt P24822) (P24822 whole entry): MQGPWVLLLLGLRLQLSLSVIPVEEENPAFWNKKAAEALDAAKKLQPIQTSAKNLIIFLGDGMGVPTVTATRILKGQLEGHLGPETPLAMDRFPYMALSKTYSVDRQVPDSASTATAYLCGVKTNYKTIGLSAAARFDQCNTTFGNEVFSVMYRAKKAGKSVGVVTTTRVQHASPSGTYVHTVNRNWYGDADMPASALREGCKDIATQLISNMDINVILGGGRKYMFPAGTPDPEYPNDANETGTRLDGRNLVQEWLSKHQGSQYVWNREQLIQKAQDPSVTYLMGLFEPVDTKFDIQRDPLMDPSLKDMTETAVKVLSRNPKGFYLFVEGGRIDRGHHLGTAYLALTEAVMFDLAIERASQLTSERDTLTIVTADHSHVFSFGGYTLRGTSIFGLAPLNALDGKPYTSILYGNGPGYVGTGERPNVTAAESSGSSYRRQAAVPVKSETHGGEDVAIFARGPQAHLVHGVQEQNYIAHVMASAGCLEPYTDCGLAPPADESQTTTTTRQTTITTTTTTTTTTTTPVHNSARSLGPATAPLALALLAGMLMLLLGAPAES
Chain of Luciferin 4-monooxygenase (P08659 whole entry): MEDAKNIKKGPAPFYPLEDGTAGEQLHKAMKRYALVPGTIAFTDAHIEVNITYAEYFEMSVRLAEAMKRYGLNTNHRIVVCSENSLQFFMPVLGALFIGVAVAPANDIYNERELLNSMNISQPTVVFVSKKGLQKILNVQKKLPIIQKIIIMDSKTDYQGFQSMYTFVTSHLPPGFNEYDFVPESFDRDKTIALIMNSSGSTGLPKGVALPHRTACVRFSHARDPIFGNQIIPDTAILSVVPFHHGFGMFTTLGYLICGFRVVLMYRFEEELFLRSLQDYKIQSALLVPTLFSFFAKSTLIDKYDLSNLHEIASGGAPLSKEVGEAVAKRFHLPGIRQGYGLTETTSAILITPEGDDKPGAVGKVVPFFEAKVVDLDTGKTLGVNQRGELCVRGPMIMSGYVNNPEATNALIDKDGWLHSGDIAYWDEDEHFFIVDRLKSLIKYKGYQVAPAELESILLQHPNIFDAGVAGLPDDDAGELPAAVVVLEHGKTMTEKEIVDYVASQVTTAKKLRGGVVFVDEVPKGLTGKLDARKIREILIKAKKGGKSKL

With `N#Cc1c2c(c(NCc3ccco3)n3c1nc1ccccc13)CCC2` the IC50 [1] was > 100 µM (inactive) and the IC50 [2] was > 100 µM (inactive).

For `CN(C)c1ccc(N=Nc2nc3ccccc3n2C)cc1`, the EC50 [3] was 0.208 µM (active), the IC50 [4] was 27.6 µM (active) and the EC50 [5] was > 100 µM (inactive). The EC50 [6] was 0.213 µM (active), the EC50 [7] was 0.429 µM (inconclusive) and the IC50 [8] was 36.9 µM (active).

For `O=C1C=CC(=O)N1CCNc1ncc(C(F)(F)F)cc1Cl`, the IC50 (Beta-galactosidase) was > 66.6 µM (inactive), the IC50 [9] was 0.383 µM (active) and the EC50 [10] was 2.78 µM (active). The IC50 [11] was 12 µM (active), the EC50 [12] was 3.98 µM (active) and the IC50 [13] was 1.53 µM (active). For the same compound, the AC50 [14] was 11.9 µM (active), the IC50 (Melanocortin receptor 4) was 12.3 µM (inactive) and the EC50 [15] was 10.4 µM (active). The IC50 [16] was > 80 µM (inactive), the IC50 (CHO) was 1.62 µM (active) and the AC50 [17] was 0.482 µM (active). For the same compound, the AC50 [18] was 16 µM (active), the EC50 (Streptococcus) was > 150 µM (not active) and the IC50 [19] was 15.1 µM (inactive). For the same compound, the EC50 (Streptokinase A) was > 150 µM (not active) and the AC50 [20] was 0.947 µM (active).

In the case of `COC(=O)c1ccccc1NCc1cc(=O)oc2cc(O)c(O)cc12`, the EC50 (Caspase-7) is reported as > 85.2 µM (inactive), the EC50 [21] is reported as 18.4 µM (inconclusive) and the EC50 [22] is reported as 19 µM (inconclusive). The IC50 [23] was > 4.03 µM (active), the EC50 (Caspase-3) was > 1.05 µM (active) and the AC50 [24] was 6.97 µM (active). The IC50 (Bcl-2-like protein 1) was > 109 µM (not active).
